ChEMBL document CHEMBL3885881, “DrugMatrix”

Species: Rattus norvegicus
Test: DrugMatrix - Regimen: Daily Repeat
Format: toxicity, organism-based, Sprague-Dawley
Design: regimen Daily Repeat, gender Male, age 6-8 weeks
Details: in vivo, sc, route subcutaneous, […]; for ABSOLUTE BASOPHIL / ABSOLUTE EOSINOPHIL / ABSOLUTE LYMPHOCYTE / ABSOLUTE MONOCYTE / ABSOLUTE SEGMENTED NEUTROPHIL / BASOPHIL / EOSINOPHIL / ERYTHROCYTE COUNT / HEMATOCRIT / HEMOGLOBIN / LEUKOCYTE COUNT / LYMPHOCYTE / MEAN CORPUSCULAR HEMOGLOBIN / MEAN CORPUSCULAR HEMOGLOBIN CONCENTRATION / MEAN CORPUSCULAR VOLUME / MONOCYTE / NEUTROPHIL / NUCLEATED RED BLOOD CELLS / PLATELET COUNT: tissue Blood; for ALANINE AMINOTRANSFERASE / ALBUMIN / ALKALINE PHOSPHATASE / ASPARTATE AMINOTRANSFERASE / BLOOD UREA NITROGEN / CARBON DIOXIDE / CHLORIDE / CHOLESTEROL / CREATINE PHOSPHOKINASE / CREATININE / GLUCOSE / LACTATE DEHYDROGENASE / LIPASE / PHOSPHORUS / POTASSIUM / SODIUM / TOTAL BILIRUBIN / TOTAL PROTEIN / URIC ACID: tissue Plasma
[1] = 0 mg/kg, 72 h, dose level Control, time 3 day
[2] = 0 mg/kg, 120 h, dose level Control, time 5 day
[3] = 50 mg/kg, 72 h, dose level Low, time 3 day

## CC(C)(c1ccc(O)cc1)c1ccc(O)cc1 [BISPHENOL A]
[1]
  ABSOLUTE BASOPHIL: 0 CELLS/uL
  ABSOLUTE EOSINOPHIL: 0 CELLS/uL
  ABSOLUTE LYMPHOCYTE: 9782.33 CELLS/uL
  ABSOLUTE MONOCYTE: 114.67 CELLS/uL
  ABSOLUTE SEGMENTED NEUTROPHIL: 753 CELLS/uL
  BASOPHIL: 0%
  EOSINOPHIL: 0%
  ERYTHROCYTE COUNT: 5.14 x10E6/uL
  HEMATOCRIT: 32.12%
  HEMOGLOBIN: 13.13 G/DL
  LEUKOCYTE COUNT: 10.65 x10E3/uL
  LYMPHOCYTE: 91.83%
  MEAN CORPUSCULAR HEMOGLOBIN: 25.83 pg
  MEAN CORPUSCULAR HEMOGLOBIN CONCENTRATION: 41.28 G/DL
  MEAN CORPUSCULAR VOLUME: 62.43 fL
  MONOCYTE: 1%
  NEUTROPHIL: 7.17%
  NUCLEATED RED BLOOD CELLS: 0.17 /100WBC
  PLATELET COUNT: 657.83 x10E3/uL
  ALANINE AMINOTRANSFERASE: 60.33 u/L
  ALBUMIN: 3.83 G/DL
  ALKALINE PHOSPHATASE: 366.33 u/L
  ASPARTATE AMINOTRANSFERASE: 104.5 u/L
  BLOOD UREA NITROGEN: 12.33 mg/dL
  CARBON DIOXIDE: 23.17 mmol/L
  CHLORIDE: 96.67 MEQ/L
  CHOLESTEROL: 73.17 mg/dL
  CREATINE PHOSPHOKINASE: 545.83 u/L
  CREATININE: 0.26 mg/dL
  GLUCOSE: 144.33 mg/dL
  LACTATE DEHYDROGENASE: 147.5 u/L
  LIPASE: 9.33 u/L
  PHOSPHORUS: 10.83 mg/dL
  POTASSIUM: 5.68 MEQ/L
  SODIUM: 138.83 MEQ/L
  TOTAL BILIRUBIN: 0.17 mg/dL
  TOTAL PROTEIN: 5.42 G/DL
  URIC ACID: 0.65 mg/dL
[2]
  ABSOLUTE BASOPHIL: 0 CELLS/uL
  ABSOLUTE EOSINOPHIL: 43.33 CELLS/uL
  ABSOLUTE LYMPHOCYTE: 12883 CELLS/uL
  ABSOLUTE MONOCYTE: 166.83 CELLS/uL
  ABSOLUTE SEGMENTED NEUTROPHIL: 1290.17 CELLS/uL
  BASOPHIL: 0%
  EOSINOPHIL: 0.33%
  ERYTHROCYTE COUNT: 5.79 x10E6/uL
  HEMATOCRIT: 36.37%
  HEMOGLOBIN: 14.17 G/DL
  LEUKOCYTE COUNT: 14.38 x10E3/uL
  LYMPHOCYTE: 89.17%
  MEAN CORPUSCULAR HEMOGLOBIN: 24.48 pg
  MEAN CORPUSCULAR HEMOGLOBIN CONCENTRATION: 38.98 G/DL
  MEAN CORPUSCULAR VOLUME: 62.83 fL
  MONOCYTE: 1.17%
  NEUTROPHIL: 9.33%
  NUCLEATED RED BLOOD CELLS: 0.5 /100WBC
  PLATELET COUNT: 1267.33 x10E3/uL
  ALANINE AMINOTRANSFERASE: 53.5 u/L
  ALBUMIN: 3.82 G/DL
  ALKALINE PHOSPHATASE: 342.33 u/L
  ASPARTATE AMINOTRANSFERASE: 83.67 u/L
  BLOOD UREA NITROGEN: 13.17 mg/dL
  CARBON DIOXIDE: 28.17 mmol/L
  CHLORIDE: 101.5 MEQ/L
  CHOLESTEROL: 70.83 mg/dL
  CREATINE PHOSPHOKINASE: 656.67 u/L
  CREATININE: 0.17 mg/dL
  GLUCOSE: 171.33 mg/dL
  LACTATE DEHYDROGENASE: 169 u/L
  LIPASE: 9.17 u/L
  PHOSPHORUS: 12.88 mg/dL
  POTASSIUM: 6.54 MEQ/L
  SODIUM: 141.2 MEQ/L
  TOTAL BILIRUBIN: 0.18 mg/dL
  TOTAL PROTEIN: 5.68 G/DL
  URIC ACID: 2.02 mg/dL
[3]
  ABSOLUTE BASOPHIL: 0 CELLS/uL
  ABSOLUTE EOSINOPHIL: 47.33 CELLS/uL
  ABSOLUTE LYMPHOCYTE: 13197 CELLS/uL
  ABSOLUTE MONOCYTE: 0 CELLS/uL
  ABSOLUTE SEGMENTED NEUTROPHIL: 655.67 CELLS/uL
  BASOPHIL: 0%
  EOSINOPHIL: 0.33%
  ERYTHROCYTE COUNT: 5.26 x10E6/uL
  HEMATOCRIT: 33.73%
  HEMOGLOBIN: 13.37 G/DL
  LEUKOCYTE COUNT: 13.9 x10E3/uL
  LYMPHOCYTE: 94.67%
  MEAN CORPUSCULAR HEMOGLOBIN: 25.43 pg
  MEAN CORPUSCULAR HEMOGLOBIN CONCENTRATION: 39.67 G/DL
  MEAN CORPUSCULAR VOLUME: 64.23 fL
  MONOCYTE: 0%
  NEUTROPHIL: 5%
  NUCLEATED RED BLOOD CELLS: 0 /100WBC
  PLATELET COUNT: 1085.33 x10E3/uL
  ALANINE AMINOTRANSFERASE: 58.33 u/L
  ALBUMIN: 4.1 G/DL
  ALKALINE PHOSPHATASE: 341 u/L
  ASPARTATE AMINOTRANSFERASE: 86.67 u/L
  BLOOD UREA NITROGEN: 11.33 mg/dL
  CARBON DIOXIDE: 27.67 mmol/L
  CHLORIDE: 96.5 MEQ/L
  CHOLESTEROL: 65.67 mg/dL
  CREATINE PHOSPHOKINASE: 317.33 u/L
  CREATININE: 0.21 mg/dL
  GLUCOSE: 134 mg/dL
  LACTATE DEHYDROGENASE: 126.67 u/L
  LIPASE: 12.33 u/L
  PHOSPHORUS: 10.53 mg/dL
  POTASSIUM: 5.77 MEQ/L
  SODIUM: 139.05 MEQ/L
  TOTAL BILIRUBIN: 0.17 mg/dL
  TOTAL PROTEIN: 5.33 G/DL
  URIC ACID: 0.37 mg/dL
